From article PMC11154727, “Systematic Studies on the Anti-SARS-CoV-2 Mechanisms of Tea Polyphenol-Related Natural Products” (ACS Omega, 2024)
Like-named read-outs stand apart in the source and are kept apart here.

What was measured:
[1] = system: UK B.1.1.7 N501Y Alpha SARS-CoV-2; type: cell-based; details: read-out: EC50 α strain
[2] = system: Brazil P.1 Gamma mutant SARS-CoV-2; type: cell-based; details: read-out: EC50 γ strain
[3] = target: T1, RBD/ACE2 interaction (UniProt P0DTC2+Q9BYF1, L452R/T478K); test: cell-based
[4] = target: T1, RBD/ACE2 interaction; details: read-out: IC50 RBD/ACE2

Molecule: O=C(O[C@@H]1Cc2c(O)cc(O)cc2O[C@@H]1c1cc(O)c(=O)c2c(O)c(O)cc([C@H]3Oc4cc(O)cc(O)c4C[C@H]3OC(=O)c3cc(O)c(O)c(O)c3)c2c1)c1cc(O)c(O)c(O)c1 [TF3, theaflavin-3,3′-digallate]
- EC50 [1]: 0.5 µM
- EC50 [2]: 0.4 ± 0.2 µM

Molecule: O=c1c(O)cc([C@H]2Oc3cc(O)cc(O)c3C[C@H]2O)cc2c([C@H]3Oc4cc(O)cc(O)c4C[C@H]3O)cc(O)c(O)c12 [theaflavin]
- IC50 [3]: 12.3 ± 1.1 µM

Molecule: proanthocyanidin
- IC50 [4]: 12.4 ± 1.1 µM
